From US6890708B2, “Method for improving the quality of sperm for artificial insemination of animals” (priority 2000, dated 2005)
Like-named read-outs stand apart in the source and are kept apart here.

Columns and labels:
[1] = tested on: Polymorphonuclear Neutrophils (PMN); assay: In vitro phagocytosis of boar sperm by PMN (phagocytosis assay); type: cell-based, pig; conditions: for % of phagocytosed sperm: Exp. 1; for inhibition at 200 µM / inhibition at 500 µM / inhibition at 1000 µM / inhibition at 2000 µM: Sus scrofa, Polymorphonuclear neutrophil, read-out: % inhibition (percentage decrease of phagocytosis relative to control)
Method: Tyrode's medium was used as described as “standard Tyrode's medium” in […] et al. ([…], Harrison, R A P, Miller, N G A, Topper, E K, and Woelders, H, 1998, Enhanced Binding of Zona Pellucida Proteins to the Acrosomal Region of Intact Boar Spermatozoa in Response to Fertilizing Conditions: A Flow Cytometric Study. […] Serum was prepared from blood collected from 11 primiparous sows, pooled, and frozen in aliquots at -80° C. Per experiment, 20 ml peripheral blood of a single Dutch Landrace sow (each experiment a different sow) was collected in heparinized vacutainers (Venoject, Omnilabo, Breda, The Netherlands). The peripheral blood was subsequently diluted with an equal volume of phosphate buffered saline (PBS). […] The supernatant, including the mononuclear cells at the interface, was removed. The pellet was resuspended in 2 ml of ice-cold distilled water to lyse the erythrocytes. […] The PMNs were pelleted by centrifugation for 10 min at 400×g and the lysis procedure was repeated. […] All cell suspensions were pooled together, mixed well, and subjected to centrifugation. The PMN were resuspended in TM-s with inactivated complement, and the cell concentration was determined using a hemocytometer. The PMN preparation was stored overnight at 4° C. […] The viability, assessed by trypan blue exclusion, was >98%. Semen was obtained from Dutch A.I. stations. Per experiment, semen was used from a single Yorkshire breeding boar (each experiment a different boar). At the AI-station, the semen was diluted to a concentration of approximately 30×10^6 cells/ml in Beltsville Thawing Solution (BTS) (Johnson et al., 1988). The diluted semen was stored at 17° C. for up to 48 hours, until the diluted semen sample was used. […] Aliquots of 80 μl of the PMN suspension (see, PMN isolation and preparation of PMNs) in TM or TM-s, with either intact or inactivated complement, were transferred to a 96-well polystyrene microtest plate. […] The samples were incubated with gentle swirling on a test plate shaker. […] The heparin facilitates dissociation of agglutinated PMNs. The samples were thoroughly mixed, left for 15 min., and mixed again. […] The frozen-thawed semen was taken from a large stock of semen from one ejaculate and washed 3 times in PBS prior to use. […] The mounts enabled observation and counting of fluorescently labeled spermatozoa inside and outside the phagocytes. By focusing at different levels in the mount, spermatozoa that were located above or below the PMN could be distinguished from those that were phagocytosed. In many PMNs that had ingested a spermatozoon, the presence of the sperm nucleus or tail caused a conspicuous change of the shape of the PMN. Two hundred spermatozoa were evaluated and classified as inside or outside the PMN (i.e., phagocytosed or not phagocytosed). The same fixed mounts were used to assess the acrosome morphology of the non-phagocytosed spermatozoa at the moment of fixation.

sows = assay: Example III Series 2: embryos and accessory sperm after insemination of sows; type: in vivo, pig
Method: Series 2: Batches of sows (parity 2-13) received hCG at 84 hours after weaning. The sows were inseminated at 16 hours after hCG administration (on average 26 hours, ranging from 21-28 hours, before ovulation as observed by transrectal ultrasonography) or inseminated at 4 hours after ovulation. […] The sows were slaughtered at 115 (112-120) hours after ovulation. The embryos were flushed, examined morphologically, and the number of accessory sperm were counted.

boar spermatozoa = assay: Sperm viability in vitro (motility, acrosome morphology), Example I; type: cell-based, pig
[2] = Exp. 2, 0.2 mM, without pre-incubation, 15 min
[3] = Exp. 2, 0.2 mM, without pre-incubation, 30 min
[4] = Exp. 2, 0.2 mM, without pre-incubation, 60 min
[5] = Exp. 2, 0.5 mM, after pre-incubation, 15
[6] = Exp. 2, 0.5 mM, after pre-incubation, 30
[7] = Exp. 2, 0.5 mM, after pre-incubation, 60
[8] = Exp. 2, 0.5 mM, without pre-incubation, 15 min
[9] = Exp. 2, 0.5 mM, without pre-incubation, 30 min
[10] = Exp. 2, 0.5 mM, without pre-incubation, 60 min
[11] = Exp. 2, 1 mM, after pre-incubation, 15
[12] = Exp. 2, 1 mM, after pre-incubation, 30
[13] = Exp. 2, 1 mM, after pre-incubation, 60
[14] = Exp. 2, 1 mM, without pre-incubation, 15 min
[15] = Exp. 2, 1 mM, without pre-incubation, 30 min
[16] = Exp. 2, 1 mM, without pre-incubation, 60 min
[17] = Exp. 2, 2 mM, after pre-incubation, 15
[18] = Exp. 2, 2 mM, after pre-incubation, 30
[19] = Exp. 2, 2 mM, after pre-incubation, 60
[20] = Exp. 2, 2 mM, without pre-incubation, 15 min
[21] = Exp. 2, 2 mM, without pre-incubation, 30 min
[22] = Exp. 2, 2 mM, without pre-incubation, 60 min
[23] = Exp. 3, 1 mM, pre-incubation of sperm 30 min. at 38° C., 15 min
[24] = Exp. 3, 1 mM, pre-incubation of sperm 30 min. at 38° C., 30 min
[25] = Exp. 3, 1 mM, pre-incubation of sperm 30 min. at 38° C., 60 min

Cn1c(=O)c2c(ncn2C)n(C)c1=O [caffeine, 1,3,7-Trimethylxanthine]
phagocytosis of sperm by PMN in vitro, in words [1]: decreased | % of phagocytosed sperm ([1]; 1 mM, without pre-incubation, 1st value column, head not printed): 20% | % of phagocytosed sperm ([1]; 1 mM, without pre-incubation, 2nd value column, head not printed): 22% | % of phagocytosed sperm ([1]; 1 mM, without pre-incubation, 3rd value column, head not printed): 18% | % of phagocytosed sperm ([1]; 2 mM, preincubated 30 min. at 38° C., phagocytosis time 15 min): 22% | % of phagocytosed sperm ([1]; 2 mM, preincubated 30 min. at 38° C., phagocytosis time 30 min): 15% | % of phagocytosed sperm ([1]; 2 mM, preincubated 30 min. at 38° C., phagocytosis time 60 min): 29% | % of phagocytosed sperm ([1]; 2 mM, preincubated 30 min. at 38° C., phagocytosis time 90 min): 20% | % phagoc. sperm [1, 2]: 48% | % phagoc. sperm [1, 3]: 73% | % phagoc. sperm [1, 4]: 75% | % phag. Sperm [1, 5]: 29% | % phag. Sperm [1, 6]: 28% | % phag. Sperm [1, 7]: 42% | % phagoc. sperm [1, 8]: 40% | % phagoc. sperm [1, 9]: 67% | % phagoc. sperm [1, 10]: 68% | % phag. Sperm [1, 11]: 14% | % phag. Sperm [1, 12]: 26% | % phag. Sperm [1, 13]: 24% | % phagoc. sperm [1, 14]: 29% | % phagoc. sperm [1, 15]: 58% | % phagoc. sperm [1, 16]: 62% | % phag. Sperm [1, 17]: 9% | % phag. Sperm [1, 18]: 17% | % phag. Sperm [1, 19]: 21% | % phagoc. sperm [1, 20]: 28% | % phagoc. sperm [1, 21]: 51% | % phagoc. sperm [1, 22]: 56% | % phag. Sperm [1, 23]: 32% | % phag. Sperm [1, 24]: 45% | % phag. Sperm [1, 25]: 56% | phagocytosis of sperm, in words ([1]; Exp. 4, caffeine added to the semen extender the day before use): inhibits phagocytosis after one day | phagocytosis of sperm by PMN in vitro, in words ([1]; Exp. 5, 1 mM): reduced the phagocytosis of sperm by PMN in vitro | inhibition at 200 µM [1, 2]: 9% | inhibition at 200 µM [1, 3]: 4% | inhibition at 200 µM [1, 4]: 3% | inhibition at 500 µM [1, 5]: 38% | inhibition at 500 µM [1, 6]: 56% | inhibition at 500 µM [1, 7]: 33% | inhibition at 500 µM [1, 8]: 25% | inhibition at 500 µM [1, 9]: 12% | inhibition at 500 µM [1, 10]: 12% | inhibition at 1000 µM [1, 11]: 70% | inhibition at 1000 µM [1, 12]: 59% | inhibition at 1000 µM [1, 13]: 62% | inhibition at 1000 µM [1, 14]: 45% | inhibition at 1000 µM [1, 15]: 24% | inhibition at 1000 µM [1, 16]: 19% | inhibition at 2000 µM [1, 17]: 81% | inhibition at 2000 µM [1, 18]: 73% | inhibition at 2000 µM [1, 19]: 67% | inhibition at 2000 µM [1, 20]: 47% | inhibition at 2000 µM [1, 21]: 33% | inhibition at 2000 µM [1, 22]: 27% | inhibition at 1000 µM [1, 23]: 43% | inhibition at 1000 µM [1, 24]: 37% | inhibition at 1000 µM [1, 25]: 29% | % fertilized oocytes, in words (sows): tended to be higher | % motile sperm (boar spermatozoa; Exp. 1, after adding active compound and pre-incubation 30 min. at 38° C.): 60% | % NAR (boar spermatozoa; Exp. 2, 0.2 mM, after adding active compound, without pre-incubation): 84% | % motile sperm (boar spermatozoa; Exp. 3, 1 mM, after pre-incubation of sperm 30 min. at 38° C.): 65%
